In patent US20260256794A1, “Oral Dynamine Formulations and Methods Therefor” (Ortho-Nutra, LLC, priority 2023, published 2026):

Columns and labels:
Format in all cases: in vivo, human
subjects [1] = assay: VAS-Vigor; parameters: VAS-Vigor rating, Mean / VAS-Vigor changes from baseline, Mean Difference ± SE / VAS-Vigor area under the curve, Mean Difference ± SE / VAS-Vigor area under the curve, Mean: scale not given here
Description: (§1) The inventors have discovered various compositions and methods of improving various indices of neurological and neuroenergetic functions by administering 100 mg (once daily) dosages of DYNAMINE™ (dosage between 1.0 and 1.4 mg/kg) as described in the following:
(§2) All neuroenergetic tests as listed below were performed and data were collected after 0 and 4 days of assigned supplements (with acute effects also measured at day 4 over 180 minutes):
(§3) All VAS Measurement (Energy, Sustained Energy, Mental Stamina, Ability to Focus, Ability to Concentrate, Motivation to Accomplish Difficult Tasks, Drive, Vigor, Level of Positive Outlook, Mood, Feelings of Well-Being, Tolerate Stress); Day 0: Two tests were completed. The average of both scores was computed and this value was used in all statistical analysis. Day 4 (0 minutes after ingesting dose #4): Two tests were completed. The average of both scores was computed and this value was used in all statistical analysis. Day 4 (60, 120, and 180 minutes after ingesting dose #4): One test was completed at each time point.
(§4) Neuroenergic parameters are inherently subjective, nevertheless significant in human behavior and well-being. To allow for a standardization among different subjects, the following experiments were performed using a visual analog scale using anchor statements (lowest possible/highest possible) in which subjects were asked to rate their subjective experience with respect to the specific neuroenergic parameters tested.
VAS-Vigor: In this subjective test, subjects were asked to rate their personal level of energy on a VAS scale using the prompt of “My level of vigor right now is . . . ” (with rating lowest possible to highest possible)”. Results were collected as noted above and Table 25 provides exemplary results for Day 0 versus Day 4 ratings, whereas Table 26 provides exemplary acute results measured at Day 4 over a duration of 180 minutes. […] Of note, it should be appreciated that drive is also often a function of dopamine activation. As above, is it therefore contemplated that methylliberine may also have an agonist effect on dopamine receptors or signaling.

subjects [2] = assay: Stroop-Accuracy
Description: as §1, §2
Stroop Color Matching Test (Total Score, Accuracy %, Average Score): Day 0: Two blocks of three tests were completed. Each block of three tests was separated by 10 minutes. The median of each block was taken and then those two scores were averaged. This value was used in all statistical analysis. Day 4: Three tests were completed at four time points: after 0, 60, 120, and 180 minutes of taking dose #4. The median of the three tests at each time point was used in all statistical analysis.
The Stroop Color and Word Test (SCWT, or Stroop test) is a neuropsychological test extensively used to assess the ability to inhibit cognitive interference that occurs when the processing of a specific stimulus feature impedes the simultaneous processing of a second stimulus attribute, well-known as the Stroop effect (see e.g., Front Psychol. 2017; 8:557). Here, subjects were required to read three different tables as fast as possible. Two of them represent the “congruous condition” in which participants are required to read names of colors (‘color-words’) printed in black ink (W) and name different color patches (C). However, in the third table, the color-word (CW) condition, color-words are printed in an inconsistent color ink (e.g., the word “red” is printed in green ink). In this incongruent condition, participants are required to name the color of the ink instead of reading the word. In other words, the participants are required to perform a less automated task (i.e., naming ink color) while inhibiting the interference arising from a more automated task (i.e., reading the word). This difficulty in inhibiting the more automated process is called the Stroop effect. The Stroop test is predominantly used to measure the ability to inhibit cognitive interference. However, some sources also report its application to measure other cognitive functions such as attention, processing speed, cognitive flexibility, and working memory.
Stroop-Accuracy: The results for this test were based on an accuracy score comparing performance between Day 0 and Day 4, with Day 4 including tests over a duration of 180 minutes. Results were collected as noted above and Table 43 provides exemplary results for Day 0 versus Day 4 ratings, whereas Table 44 provides exemplary acute results measured at Day 4 over a duration of 180 minutes.

subjects [3] = assay: VAS-Energy; parameters: VAS-Energy rating, Mean / VAS-Energy changes from baseline, Mean Difference ± SE / VAS-Energy Δ, Mean Difference ± SE / VAS-Energy area under the curve, Mean Difference ± SE / VAS-Energy area under the curve, Mean: scale not given here; settings: for VAS-Energy Δ, effect size d / VAS-Energy Δ from 0 min, Mean / VAS-Energy Δ, Mean Difference ± SE: females; for VAS-Energy Δ, effect size d: vs placebo; for VAS-Energy Δ, Mean Difference ± SE: B vs A (placebo)
Description: as §1, §2, §3, §4
VAS-Energy: In this subjective test, subjects were asked to rate their personal level of energy on a VAS scale using the prompt of “My level of energy right now is . . . ” (with rating lowest possible to highest possible)”. Results were collected as noted above and Table 2 provides exemplary results for Day 0 versus Day 4 ratings, whereas Table 3 provides exemplary acute results measured at Day 4 over a duration of 180 minutes.

[4] = 100 mg once daily, Day 4, 0-180 min
[5] = 100 mg once daily, Day 4, 0-180 min, vs Group A (placebo)
[6] = 100 mg once daily, Day 4, 0 min after dose #4
[7] = 100 mg once daily, Day 4, 60 min-0 min, vs Group A (placebo)
[8] = 100 mg once daily, Day 4, 60 min after dose #4
[9] = 100 mg once daily, Day 4, 120 min-0 min, vs Group A (placebo)
[10] = 100 mg once daily, Day 4, 120 min after dose #4
[11] = 100 mg once daily, Day 4, 180 min-0 min, vs Group A (placebo)
[12] = 100 mg once daily, Day 4, 180 min after dose #4
[13] = 100 mg once daily, Day 4, Δ @ 60 min
[14] = 100 mg once daily, Day 4, Δ @ 120 min
[15] = 100 mg once daily, Day 4, Δ @ 180 min

## COc1nc2c(c(=O)n1C)n(C)c(=O)n2C [methylliberine, 2-methoxy-1,7,9-trimethylpurine-6,8-dione]
Subjects [1]; [4]
  VAS-Vigor area under the curve, Mean: 1112
Subjects [1]; [5]
  VAS-Vigor area under the curve, Mean Difference ± SE: 21.8 ± 41.5
  VAS-Vigor area under the curve, effect size d: 0.07
Subjects [1]; [6]
  VAS-Vigor rating, Mean: 5.8
Subjects [1]; [7]
  VAS-Vigor changes from baseline, Mean Difference ± SE: 0.02 ± 0.23
  VAS-Vigor changes from baseline, effect size d: 0.02
Subjects [1]; [8]
  VAS-Vigor rating, Mean: 6.2
Subjects [1]; [9]
  VAS-Vigor changes from baseline, Mean Difference ± SE: −0.12 ± 0.25
  VAS-Vigor changes from baseline, effect size d: 0.13
Subjects [1]; [10]
  VAS-Vigor rating, Mean: 6.3
Subjects [1]; [11]
  VAS-Vigor changes from baseline, Mean Difference ± SE: 0.43 ± 0.28
  VAS-Vigor changes from baseline, effect size d: −0.41
Subjects [1]; [12]
  VAS-Vigor rating, Mean: 6.4
Subjects [1]; Day 0 (before supplementation)
  VAS-Vigor rating, Mean: 5.8
Subjects [2]; [6]
  Stroop accuracy, Mean: 99.2%
Subjects [2]; [8]
  Stroop accuracy, Mean: 99.1%
Subjects [2]; [10]
  Stroop accuracy, Mean: 99.0%
Subjects [2]; [12]
  Stroop accuracy, Mean: 98.9%
Subjects [2]; Day 0 (before supplementation)
  Stroop accuracy, Mean: 99.2%
Subjects [3]; [4]
  VAS-Energy area under the curve, Mean: 1115
Subjects [3]; [5]
  VAS-Energy area under the curve, Mean Difference ± SE: 49.6 ± 36.3
  VAS-Energy area under the curve, effect size d: 0.15
Subjects [3]; [6]
  VAS-Energy rating, Mean: 5.8
Subjects [3]; [7]
  VAS-Energy changes from baseline, Mean Difference ± SE: 0.24 ± 0.22
  VAS-Energy changes from baseline, effect size d: 0.28
Subjects [3]; [8]
  VAS-Energy rating, Mean: 6.2
Subjects [3]; [9]
  VAS-Energy changes from baseline, Mean Difference ± SE: −0.14 ± 0.27
  VAS-Energy changes from baseline, effect size d: −0.14
Subjects [3]; [10]
  VAS-Energy rating, Mean: 6.2
Subjects [3]; [11]
  VAS-Energy changes from baseline, Mean Difference ± SE: 0.28 ± 1.24
  VAS-Energy changes from baseline, effect size d: 0.28
Subjects [3]; [12]
  VAS-Energy rating, Mean: 6.5
Subjects [3]; Day 0 (before supplementation)
  VAS-Energy rating, Mean: 5.5
Subjects [3]; 100 mg once daily, Day 4, 60 min
  VAS-Energy Δ, effect size d: 0.81
Subjects [3]; 100 mg once daily, Day 4, 120 min
  VAS-Energy Δ, effect size d: 0.69
Subjects [3]; 100 mg once daily, Day 4, 120 min, listed as B
  VAS-Energy Δ, effect size d: −0.03
Subjects [3]; 100 mg once daily, Day 4, 180 min
  VAS-Energy Δ, effect size d: 0.69
Subjects [3]; [13]
  VAS-Energy Δ from 0 min, Mean: 0.66
  VAS-Energy Δ, Mean Difference ± SE: 0.72 ± 0.23
Subjects [3]; [14]
  VAS-Energy Δ from 0 min, Mean: 0.42
  VAS-Energy Δ, Mean Difference ± SE: −0.03 ± 0.38
Subjects [3]; [15]
  VAS-Energy Δ from 0 min, Mean: 1.08
  VAS-Energy Δ, Mean Difference ± SE: 0.73 ± 1.11
